In patent publication US9592228B2, “Treatment of inflammation using alpha 7 receptor-binding agonists” (THE FEINSTEIN INSTITUTE FOR MEDICAL RESEARCH, priority 2002, dated 2017):
Where “and” joins values, the source holds several entries; their conditions need not be identical. Identical values can stand only once. Like-named read-outs stand apart in the source and are kept apart here.

Legend:
[1] = tested on: LPS induced TNF-α release from murine RAW 264.7 macrophage-like cells; test: cells; format: cell-based
[2] = tested on: TNF production by LPS-stimulated nicotinic acetylcholine receptor α7 subunit knockout peritoneal macrophages; format: cell-based, mouse
[3] = tested on: TNF production by LPS-stimulated wild type peritoneal macrophages; test: TNF production by wild type peritoneal macrophages; format: cell-based, mouse; conditions: 4 h, ELISA, mean ± s.e.m., n = 8
Balb/c mice = conditions: mouse, in vivo
C57 B/6 mice [4] = conditions: mouse, in vivo
C57 B/6 mice [5] = conditions: mouse, in vivo; remark: listed apart in the source
macrophages = conditions: data not shown
[6] = biological target: α-bungarotoxin-binding nicotinic receptors on primary human macrophages (Homo sapiens, UniProt P36544)
Sequence of α-bungarotoxin-binding nicotinic receptors on primary human macrophages (P36544 23-502): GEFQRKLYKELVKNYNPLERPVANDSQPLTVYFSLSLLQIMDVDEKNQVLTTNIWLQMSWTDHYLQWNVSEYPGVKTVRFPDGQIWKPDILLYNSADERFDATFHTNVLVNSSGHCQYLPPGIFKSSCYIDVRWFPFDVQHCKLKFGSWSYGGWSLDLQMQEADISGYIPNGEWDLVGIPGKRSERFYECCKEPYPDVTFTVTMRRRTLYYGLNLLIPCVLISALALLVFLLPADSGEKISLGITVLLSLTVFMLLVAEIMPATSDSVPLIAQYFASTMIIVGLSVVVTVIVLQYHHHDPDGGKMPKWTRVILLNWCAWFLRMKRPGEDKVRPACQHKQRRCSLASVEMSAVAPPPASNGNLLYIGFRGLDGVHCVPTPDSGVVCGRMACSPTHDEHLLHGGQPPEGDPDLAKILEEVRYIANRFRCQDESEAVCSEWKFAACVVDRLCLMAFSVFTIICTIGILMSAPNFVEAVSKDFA

[7] = agonist 1 μM added 5-10 min before LPS (100 ng/ml)
[8] = agonist 10 μM added 5-10 min before LPS (100 ng/ml)

Which results are given for `O=C1NCC2(CN3CCC2CC3)O1` (single isomer, unassigned; (-)) [Compound (VII), (−)-spiro[1-azabicyclo[2.2.2]octane-3,5′-oxazolidin-2′-one]]?
TNF-α release from RAW 264.7 cells at the higher concentrations [1]: inhibit TNF-α release; decrease of TNF-α release compared to control cells [1]: more than four times

How did the TNF [2] turn out when `CC(=O)OCC[N+](C)(C)C` [Ach, acetylcholine] was run?
The TNF was 20.4 ± 3.8 ng/mL and 21.4 ± 2.4 ng/mL.

What about the TNF [3, 7] of the same compound?
Its TNF is 10.3 ± 1.1 ng/mL.

What about the TNF [3, 8] of the same compound?
Its TNF is 5.7 ± 0.9 ng/mL.

`COc1ccc(/C=C2\CCCN=C2c2cccnc2)c(OC)c1` [Compound (V), 3-2,4-dimethoxybenzylidene anabaseine] was tested. Which “inhibition of TNF-α release” value [1] did it give?
The value was “dose dependently inhibits”.

And the “mice survived on Day 14” value (Balb/c mice)?
The value was 91%.

How did the “percent inhibition of TNF-α” value [1] turn out when `COc1cc(O)ccc1/C=C1\CCCN=C1c1cccnc1` [Compound (VI), 3-(4-hydroxy-2-methoxybenzylidene)anabaseine] was run?
Its value is “dose dependently inhibits”.

And the IC50 ([1]; Mus musculus, RAW264.7, read-out: estimated IC50, inhibition of TNF-α)?
The IC50 was about 900 nM.

What about the “mice survived on Day 14” value (Balb/c mice) of the same compound?
The value was 82%.

What about the “colon length compared to control mice” value (C57 B/6 mice [4]) of the same compound?
Its value is “slightly greater”.

And the “colon weight (wet weight) compared to control condition” value (C57 B/6 mice [4])?
Its value is “decreased”.

And the “decrease of the level of circulating TNF-α compared to vehicle control” value (C57 B/6 mice [5])?
The value was “approximately 50%”.

What does the source list for `CN1CCCC1c1cccnc1` (stereo not shown) [nicotine]?
inhibition of TNF-α release ([1]; 0.001-100 uM added five minutes before LPS (500 ng/ml), 4 hours, ELISA, FIG. 7): dose dependently inhibits; inhibition of LPS-induced TNF release in RAW264.7 ([1]; data not shown): significantly inhibit; TNF [2]: 17.8 ± 0.6 ng/mL and 17.4 ± 2.9 ng/mL; TNF production by α7 knockout macrophages in the presence of the agonist [2]: produced TNF normally; TNF [3, 7]: 5.2 ± 0.9 ng/mL; TNF [3, 8]: 7.3 ± 1.0 ng/mL; calcium influx (macrophages): induces transient calcium influx; effect of pretreatment on intensity of α-bungarotoxin binding [6]: markedly reduced

For α-bungarotoxin, which “binding of α-bungarotoxin on the macrophage surface” value [6] is on record?
Its value is “Strong binding”.
